Experimental data published in US11389447B2 (Janssen Sciences Ireland Unlimited Company, priority 2006, dated 2022).
Read-outs that look alike come from different tables or passages of the source.

Key:
[1] = test system: mutated variants of HIV; details: many of its mutated variants; cited from earlier work
[2] = test system: wild type HIV; details: cited from earlier work
[3] = Kinetic study: plasma kinetics of TMC278 after single IM or SC injection of a nanosuspension; type: in vivo, male beagle dogs; details: 5 mg/kg; for AUC(0-t) / Cmax / Tmax / concentration at 0 h / concentration at 1 h / concentration at 3 h / concentration at 8 h / concentration at 24 h / concentration at 48 h / concentration at 72 h / concentration at 144 h / concentration at 192 h / concentration at 240 h / concentration at 312 h / concentration at 384 h / concentration at 480 h / concentration at 648 h / concentration at 696 h / concentration at 864 h / concentration at 1032 h / concentration at 1200 h / concentration at 1368 h / concentration at 1536 h / concentration at 1704 h / concentration at 1872 h / concentration at 2040 h / concentration at 2208 h: male, beagle, dog, plasma; for AUC(0-t) / Cmax / Tmax: im, single IM 5 mg/kg TMC278 nanosuspension; for Cmax: read-out: Cmax; for Tmax: read-out: Tmax; for concentration at 0 h / concentration at 1 h / concentration at 3 h / concentration at 8 h / concentration at 24 h / concentration at 48 h / concentration at 72 h / concentration at 144 h / concentration at 192 h / concentration at 240 h / concentration at 312 h / concentration at 384 h / concentration at 480 h / concentration at 648 h / concentration at 696 h / concentration at 864 h / concentration at 1032 h / concentration at 1200 h / concentration at 1368 h / concentration at 1536 h / concentration at 1704 h / concentration at 1872 h / concentration at 2040 h / concentration at 2208 h: intramuscular, plasma concentration of TMC278, single IM 5 mg/kg TMC278 nanosuspension;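 on all read-outs here: healthy male beagle dogs injected in both biceps femoris muscles (IM) or both thoracal sides (SC), total volume 0.2 mL/kg, drug measured in plasma from blood samples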

SMILES: Cc1cc(C=CC#N)cc(C)c1Nc1ccnc(Nc2ccc(C#N)cc2)n1 [TMC278, 4-[[4-[[4-(2-cyanoethenyl)-2,6-dimethylphenyl]amino]-2-pyrimidinyl]amino]benzonitrile]
- activity against mutated variants of HIV (in words) [1]: pronounced activity
- activity against wild type HIV (in words) [2]: pronounced activity
- blood plasma levels after injection (in words) ([3]; injectable formulation of nanonised substance, male beagle dogs): stable blood plasma levels during a prolonged period of time
- AUC(0-t) ([3]; dog 17264, read-out: AUC0-312 h): 27400 ng·h/mL
- AUC(0-t) ([3]; dog 17264, read-out: AUC0-696 h): 34800 ng·h/mL
- AUC(0-t) ([3]; dog 17264, read-out: AUC0-2208 h): 40500 ng·h/mL
- Cmax ([3]; dog 17264): 159 ng/mL
- Tmax ([3]; dog 17264): 48 h
- AUC(0-t) ([3]; dog 18186, read-out: AUC0-312 h): 26600 ng·h/mL
- AUC(0-t) ([3]; dog 18186, read-out: AUC0-696 h): 33000 ng·h/mL
- AUC(0-t) ([3]; dog 18186, read-out: AUC0-2208 h): 38200 ng·h/mL
- Cmax ([3]; dog 18186): 186 ng/mL
- AUC(0-t) ([3]; mean of 2 dogs, read-out: AUC0-312 h): 27000 ng·h/mL
- AUC(0-t) ([3]; mean of 2 dogs, read-out: AUC0-696 h): 33900 ng·h/mL
- AUC(0-t) ([3]; mean of 2 dogs, read-out: AUC0-2208 h): 39400 ng·h/mL
- Cmax ([3]; mean of 2 dogs): 173 ng/mL
- Tmax ([3]; mean of 2 dogs): 24 h
- concentration at 0 h ([3]; dog 17264, 0 h (d0, predose)): < 1 ng/mL
- concentration at 1 h ([3]; dog 17264, 1 h): 110 ng/mL
- concentration at 3 h ([3]; dog 17264, 3 h): 131 ng/mL
- concentration at 8 h ([3]; dog 17264, 8 h): 130 ng/mL
- concentration at 24 h ([3]; dog 17264, 24 h (d1)): 150 ng/mL
- concentration at 48 h ([3]; dog 17264, 48 h (d2)): 159 ng/mL
- concentration at 72 h ([3]; dog 17264, 72 h (d3)): 115 ng/mL
- concentration at 144 h ([3]; dog 17264, 144 h (d6)): 86.2 ng/mL
- concentration at 192 h ([3]; dog 17264, 192 h (d8)): 72.4 ng/mL
- concentration at 240 h ([3]; dog 17264, 240 h (d10)): 56.7 ng/mL
- concentration at 312 h ([3]; dog 17264, 312 h (d13)): 33.4 ng/mL
- concentration at 384 h ([3]; dog 17264, 384 h (d16)): 23.9 ng/mL
- concentration at 480 h ([3]; dog 17264, 480 h (d20)): 20.5 ng/mL
- concentration at 648 h ([3]; dog 17264, 648 h (d27)): 11.4 ng/mL
- concentration at 696 h ([3]; dog 17264, 696 h (d29)): 11.3 ng/mL
- concentration at 864 h ([3]; dog 17264, 864 h (d36)): 7.33 ng/mL
- concentration at 1032 h ([3]; dog 17264, 1032 h (d43)): 5.19 ng/mL
- concentration at 1200 h ([3]; dog 17264, 1200 h (d50)): 3.4 ng/mL
- concentration at 1368 h ([3]; dog 17264, 1368 h (d57)): 3 ng/mL
- concentration at 1536 h ([3]; dog 17264, 1536 h (d64)): 2.84 ng/mL
- concentration at 1704 h ([3]; dog 17264, 1704 h (d71)): 2.48 ng/mL
- concentration at 1872 h ([3]; dog 17264, 1872 h (d78)): 1.79 ng/mL
- concentration at 2040 h ([3]; dog 17264, 2040 h (d85)): 1.99 ng/mL
- concentration at 2208 h ([3]; dog 17264, 2208 h (d92)): 1.56 ng/mL
- concentration at 0 h ([3]; dog 18186, 0 h (d0, predose)): < 1 ng/mL
- concentration at 1 h ([3]; dog 18186, 1 h): 82.6 ng/mL
- concentration at 3 h ([3]; dog 18186, 3 h): 145 ng/mL
- concentration at 8 h ([3]; dog 18186, 8 h): 136 ng/mL
- concentration at 24 h ([3]; dog 18186, 24 h (d1)): 120 ng/mL
- concentration at 48 h ([3]; dog 18186, 48 h (d2)): 132 ng/mL
- concentration at 72 h ([3]; dog 18186, 72 h (d3)): 99.6 ng/mL
- concentration at 144 h ([3]; dog 18186, 144 h (d6)): 91.9 ng/mL
- concentration at 192 h ([3]; dog 18186, 192 h (d8)): 75.5 ng/mL
- concentration at 240 h ([3]; dog 18186, 240 h (d10)): 62.5 ng/mL
- concentration at 312 h ([3]; dog 18186, 312 h (d13)): 38 ng/mL
- concentration at 384 h ([3]; dog 18186, 384 h (d16)): 20.6 ng/mL
- concentration at 480 h ([3]; dog 18186, 480 h (d20)): 16.6 ng/mL
- concentration at 648 h ([3]; dog 18186, 648 h (d27)): 9.08 ng/mL
- concentration at 696 h ([3]; dog 18186, 696 h (d29)): 11.2 ng/mL
- concentration at 864 h ([3]; dog 18186, 864 h (d36)): 6.44 ng/mL
- concentration at 1032 h ([3]; dog 18186, 1032 h (d43)): 5.18 ng/mL
- concentration at 1200 h ([3]; dog 18186, 1200 h (d50)): 3.25 ng/mL
- concentration at 1368 h ([3]; dog 18186, 1368 h (d57)): 3 ng/mL
- concentration at 1536 h ([3]; dog 18186, 1536 h (d64)): 2.44 ng/mL
- concentration at 1704 h ([3]; dog 18186, 1704 h (d71)): 1.84 ng/mL
- concentration at 1872 h ([3]; dog 18186, 1872 h (d78)): 1.45 ng/mL
- concentration at 2040 h ([3]; dog 18186, 2040 h (d85)): 1.61 ng/mL
- concentration at 2208 h ([3]; dog 18186, 2208 h (d92)): 1.25 ng/mL
- concentration at 0 h ([3]; mean of 2 dogs, 0 h (d0, predose)): < 1 ng/mL
- concentration at 1 h ([3]; mean of 2 dogs, 1 h): 96.3 ng/mL
- concentration at 3 h ([3]; mean of 2 dogs, 3 h): 138 ng/mL
- concentration at 8 h ([3]; mean of 2 dogs, 8 h): 133 ng/mL
- concentration at 24 h ([3]; mean of 2 dogs, 24 h (d1)): 135 ng/mL
- concentration at 48 h ([3]; mean of 2 dogs, 48 h (d2)): 146 ng/mL
- concentration at 72 h ([3]; mean of 2 dogs, 72 h (d3)): 107 ng/mL
- concentration at 144 h ([3]; mean of 2 dogs, 144 h (d6)): 89.1 ng/mL
- concentration at 192 h ([3]; mean of 2 dogs, 192 h (d8)): 74 ng/mL
- concentration at 240 h ([3]; mean of 2 dogs, 240 h (d10)): 59.6 ng/mL
- concentration at 312 h ([3]; mean of 2 dogs, 312 h (d13)): 35.7 ng/mL
- concentration at 384 h ([3]; mean of 2 dogs, 384 h (d16)): 22.3 ng/mL
- concentration at 480 h ([3]; mean of 2 dogs, 480 h (d20)): 18.6 ng/mL
- concentration at 648 h ([3]; mean of 2 dogs, 648 h (d27)): 10.2 ng/mL
- concentration at 696 h ([3]; mean of 2 dogs, 696 h (d29)): 11.3 ng/mL
- concentration at 864 h ([3]; mean of 2 dogs, 864 h (d36)): 6.89 ng/mL
- concentration at 1032 h ([3]; mean of 2 dogs, 1032 h (d43)): 5.19 ng/mL
- concentration at 1200 h ([3]; mean of 2 dogs, 1200 h (d50)): 3.33 ng/mL
- concentration at 1368 h ([3]; mean of 2 dogs, 1368 h (d57)): 3 ng/mL
- concentration at 1536 h ([3]; mean of 2 dogs, 1536 h (d64)): 2.64 ng/mL
- concentration at 1704 h ([3]; mean of 2 dogs, 1704 h (d71)): 2.16 ng/mL
- concentration at 1872 h ([3]; mean of 2 dogs, 1872 h (d78)): 1.62 ng/mL
